PubChem BioAssay (NCI)
Values joined by “and” are separate entries in the source; they are usually repeats but may differ in a detail not shown here. Equal entries are not always repeated.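 Grown in 96-well plates, cells were treated for 48 hours with each compound at five concentrations. Insufficient inhibition: endpoint recorded as highest concentration tested. GI50 is the concentration that inhibits growth by half. TGI is the concentration that stops growth completely.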

How the values were obtained:
Assay in all cases: NCI-60 cell line screen, 48 h
ACHN renal = system: ACHN renal
HOP-62 NSCLC = system: HOP-62 NSCLC
NCI-H522 lung = system: NCI-H522 lung
OVCAR-3 ovarian = system: OVCAR-3 ovarian
OVCAR-5 ovarian = system: OVCAR-5 ovarian
PC-3 prostate = system: PC-3 prostate
SK-OV-3 ovarian = system: SK-OV-3 ovarian
SN12C renal = system: SN12C renal
SR leukemia = system: SR leukemia
SW-620 colon = system: SW-620 colon

| SMILES | GI50 (ACHN renal) [µM] | TGI (ACHN renal) | GI50 (HOP-62 NSCLC) | TGI (HOP-62 NSCLC) | GI50 (NCI-H522 lung) [µM] | TGI (NCI-H522 lung) | GI50 (OVCAR-3 ovarian) [µM] | TGI (OVCAR-3 ovarian) | GI50 (OVCAR-5 ovarian) | TGI (OVCAR-5 ovarian) [µM] | GI50 (PC-3 prostate) | TGI (PC-3 prostate) [µM] | GI50 (SK-OV-3 ovarian) | TGI (SK-OV-3 ovarian) [µM] | GI50 (SN12C renal) [µM] | TGI (SN12C renal) | GI50 (SR leukemia) | TGI (SR leukemia) [µM] | GI50 (SW-620 colon) | TGI (SW-620 colon) [µM] |
| --- | --- | --- | --- | --- | --- | --- | --- | --- | --- | --- | --- | --- | --- | --- | --- | --- | --- | --- | --- | --- |
| CCN(CC)CCCC(C)N/C(=C1\C(=O)NC(=O)\C1=C(/NC(C)CCCN(CC)CC)c1cccc(OC)c1)c1cccc(OC)c1 (stereo unspecified) | 0.393 | 2.16 µM | 0.815 µM | 2.27 µM | 0.755 | 1.69 µM | 1.12 | 3.2 µM | 1.16 µM | 3.42 | 0.877 µM | 2.56 | 1.31 µM | 3.92 | 1.27 | 7.03 µM | 0.444 µM | 2.13 | 0.512 µM | 3.65 |
| CO[C@H]1CC(O[C@@H]2/C(C)=C/C[C@@H]3C[C@@H](C[C@]4(CC[C@H](C)[C@@H](C5CCCCC5)O4)O3)OC(=O)[C@@H]3C=C(C)/C(=N/O)[C@H]4OC/C(=C\C=C\[C@@H]2C)[C@]43O)O[C@@H](C)C1O (stereo partly specified) | 0.994 | 2.01 µM | 0.887 µM | 1.73 µM | 1.12 | 3.13 µM | 0.864 | 1.62 µM | 0.917 µM | 2.02 | 0.704 µM | 1.84 | 1.17 µM | 2.86 | 0.889 | 1.85 µM | 1.11 µM | 2.79 | 0.777 µM | 1.5 |
| CCCCCC/C=C\CCCCCCCCCC1=C(CN2CCN(C)CC2)C(=O)C=C(OC)C1=O |  | 13 µM |  | 30.7 µM |  | 3.01 µM |  | 17.3 µM |  | 28.8 |  | 10.5 |  | 25.9 |  | 19.7 µM |  | 1.81 |  | 3.38 |
| NS(=O)(=O)c1cc(C(=O)O)c(O)c2ccccc12 |  | > 100 µM |  | > 100 µM |  | > 100 µM |  | > 100 µM |  | > 100 |  | > 100 |  | > 100 |  | > 100 µM |  | > 100 |  | > 100 |
| O=C1/C(=C/c2ccc(Cl)cc2)CNC/C1=C\c1ccc(Cl)cc1 |  | 4.17 µM and 7.08 µM |  | 12.5 µM and 7.03 µM |  | 4.4 µM and 4.75 µM |  | 4.87 µM and 4.9 µM |  | 13.4 |  | 21.2 |  | > 100 |  | 6.38 µM and 14.3 µM |  | > 100 | 0.381 µM |  |
| CCN(Cc1cccc(Cl)c1)c1ccc(CO)c(Cl)c1 | 11.9 | 25.1 µM | 2.09 µM | 16.3 µM | 12.8 | 27.1 µM | 0.835 | 5.29 µM | 0.222 µM | 1.25 | 9.8 µM | 23.2 | 5.62 µM | 18.2 | 11.9 | 27.3 µM | 16.9 µM | 39.9 | 1.56 µM | 18.1 |
| COc1cccc(Nc2nc3ccccc3c3occc23)c1 | 10.8 | 33.6 µM | 15 µM | 39 µM | 9.3 | 27 µM | 9.1 | 21.2 µM | 14.1 µM | 32.9 | 13.8 µM | 34.3 | 8.48 µM | 22.7 | 12.1 | 35.1 µM | 21.2 µM | 95 | 16.7 µM | 34.3 |
| CCc1nc2ccc(N=Nc3c(O)ccc4ccccc34)cc2[nH]1 |  | 31.5 µM |  | 43.6 µM |  | 50.3 µM |  | 37.2 µM |  | 34.9 |  | 37.5 |  | > 62 |  | 38.2 µM |  | 24.7 |  | 54.4 |
| CCCCCCCCCCCCOC1C(CNC(=O)C2OC3OC(C)(C)OC3C2NC(=O)CN2CCN(c3ccc(OC)cc3)CC2)OC2OC(C)(C)OC21 (stereo unspecified) | 3.59 | 11.2 µM | 5.07 µM | 20.5 µM | 4.92 | 17.4 µM | 4.01 | 14.5 µM | 2.52 µM | 7.5 | 2.82 µM | 9.79 | 5.87 µM | 17.7 | 3.41 | 11.7 µM | 2.86 µM | 6.07 | 3.75 µM | 28.3 |
| Cc1cc2c(-c3nc4ccccn4c3N)c(O)c(O)cc2c(O)c1-c1c(C)cc2c(-c3nc4ccccn4c3N)c(O)c(O)cc2c1O | 1.63 | > 25 µM | 1.15 µM | > 25 µM | 0.625 | 4.88 µM | 1.36 | > 25 µM | 1.69 µM | > 25 | 0.692 µM | > 25 | 0.805 µM | 6.03 | 0.82 | > 25 µM | 1.96 µM | > 25 | 0.988 µM | > 25 |
| CC(=O)[C@H]1CCC/C=C/[C@@H]2C[C@H](O)C[C@H]2[C@H](O)/C=C/C(=O)O1 | 0.674 | > 26.4 µM | 2.08 µM | > 30.2 µM | 0.805 | 2.74 µM | 0.393 | 5.01 µM | 2.1 µM | > 62.6 | 0.678 µM | > 100 | 2.43 µM | > 31.6 | 2.17 | > 100 µM | 0.313 µM | 86.9 | 0.344 µM | 1.56 |
| Oc1c(Cl)cc(Cl)c2ccc(Cn3cc(-c4ccc(C(F)(F)F)cc4)nn3)nc12 | 1.35 | 2.67 µM | 16.4 µM | 35.2 µM | 1.42 | 3.79 µM | 1.33 | 2.74 µM | 2.27 µM | 7.59 | 3 µM | 11.1 | 17.7 µM | 33 | 2.91 | 11.6 µM | 0.651 µM | > 100 | 0.493 µM | 1.83 |
| Cc1cc(-c2cc(O)ccc2Cl)cc2nnc(Nc3ccc(OCCN4CCCC4)cc3)nc12 | 1.43 | 2.83 µM | 1.88 µM | 3.79 µM | 0.71 | 2.58 µM | 1.59 | 3.12 µM | 1.65 µM | 3.14 | 0.424 µM | 1.54 | 1.3 µM | 2.8 | 1.47 | 3.03 µM | 0.239 µM | 0.595 | 0.205 µM | 0.399 |
| CC(=O)c1cc(C(=O)c2ccc3c(c2)Sc2ccccc2N3)n2ccccc12 | 0.00545 |  | 0.00399 µM and 0.00332 µM | > 33.2 µM | 0.00177 | 0.00517 µM | 0.00365 |  | 0.0376 µM and 0.199 µM | > 33.2 | 0.00453 µM and 0.00332 µM | > 33.2 | 0.00438 µM and 0.00332 µM | 21.5 |  | > 33.2 µM | 0.00459 µM and 0.00332 µM | > 33.2 | 0.00363 µM and 0.00332 µM | > 33.2 |
| COc1cc(C2c3cc4c(cc3C(OC(=O)C[n+]3ccccc3)C3COC(=O)C23)OCO4)cc(OC)c1OC (stereo unspecified) | < 0.0204 | > 100 µM | < 0.0259 µM | > 100 µM | < 0.01 | < 0.01 µM | < 0.016 | < 0.0255 µM |  | > 100 | < 0.0187 µM | > 100 | < 0.0207 µM | > 100 | < 0.0247 | > 100 µM | < 0.016 µM | > 100 | < 0.0203 µM | > 100 |
| C#CCN(c1ccc(C(=O)N[C@@H](CCC(=O)N[C@H](CCC(=O)O)C(=O)O)C(=O)O)cc1)C1CCc2cc3nc(CO)[nH]c(=O)c3cc21 (stereo partly specified) | 5.64 | > 100 µM | > 31.8 µM | > 100 µM | > 100 | > 100 µM | > 100 | > 100 µM | > 100 µM | > 100 | > 100 µM | > 100 | > 53.4 µM | > 100 | 6.78 | > 100 µM | 7.05 µM | > 100 | > 44.5 µM | > 100 |
| Clc1ccccc1-c1nnc2c(Cc3ccccc3)nc3ccccc3n12 | 39.4 | > 100 µM | 9.92 µM | > 100 µM | 29.1 | > 100 µM | 22.8 | > 100 µM | > 100 µM | > 100 | 4.66 µM | > 100 | 22.5 µM | > 100 | > 100 | > 100 µM | 3.91 µM | > 100 | 20.7 µM | > 100 |
| Cn1cc(-c2cnn3c(N)c(Br)c(C4CCCNC4)nc23)cn1 (stereo unspecified) | 0.417 | > 100 µM | 6.69 µM | > 100 µM | 24.5 | > 100 µM | 16 | > 88.9 µM | 6.96 µM | > 73 | 5.26 µM | > 86.2 | 4.06 µM | 66.8 | 3.86 | 50.6 µM | 0.326 µM | 16.9 | 15.7 µM | > 68.6 |
